These are literature values, as cited in patent publication US4256737A, “Long acting depot injectable formulations for LH-RH analogues” (Syntex (U.S.A.) Inc., priority 1979, dated 1981).

For the series the following is noted: background statement.

On to “(pyro)Glu-His-Trp-Ser-Tyr-Gly-Leu-Arg-Pro-Gly-NH2 [natural LH-RH]”, for which the biological halflife was 1-2 hours.
